Patent US11738095B2, “Cyanine-containing compounds for cancer imaging and treatment” (Emory University, priority 2007, dated 2023)
Where two headings read alike, the source gives them in different places.

Experiments:
SN12C, ACHN = test: uptake of IR783 in cell lines: renal; format: cell-based, human
Excerpt: (§1) The uptake of IR783 was studied and confirmed in a variety of human cell lines as shown below: […]

P69 = test: uptake of IR783 in cell lines: human prostate epithelia; format: cell-based
Excerpt: as §1

C4-2 = test: effect of MHI-25 on C4-2 cells in culture (FIG. 9 top); format: cell-based, human; settings: for cell death in culture: 24 hrs
Excerpt: To confirm the ability of other compounds to exert cytotoxicity against the growth of human tumors in vitro and in vivo, the effect of MHI-25 on the growth of C4-2 tumors in vitro (FIG. 9 top panel) and in mice (FIG. 9 bottom panel) was studied.

RAW = test: uptake of IR783 in cell lines: mouse macrophages; format: cell-based
Excerpt: as §1

C4-2 tumors = test: effect of MHI-25 on pre-established C4-2 tumors in mice (FIG. 9 bottom); format: in vivo, mouse; settings: 100 nmols, Day 5 after administration
HEK293 = test: uptake of IR783 in cell lines: human embryonic kidney epithelial normal cells; format: cell-based
Excerpt: as §1

[1] = test system: orthotopic prostate ARCaPM tumor; test: NIR imaging to assess pharmacokinetics of IR783 in vivo (FIG. 16A, 19); set-up: species or system mouse
[2] = test system: subcutaneous ARCaPM tumor, intratibial C4-2 tumor; test: IR783 imaging of human prostate cancer xenografts in nude mice (FIG. 15); format: in vivo, mouse
Description: The mice were injected i.p with IR783 at 0.2 μg/kg. Imaging was performed 24 hours later with the Kodak multimodal-imaging system. Histopathological analysis (H/E) confirmed the presence of tumors. […] Histopathology confirmed the necrotic status of the tumors.

[3] = test system: spontaneous prostate tumor in a TRAMP mouse; test: imaging of spontaneous TRAMP prostate tumor, fresh and after fixation (FIG. 16B, C); format: in vivo
Description: NIR imaging studies were performed to assess pharmacokinetics of the IR783 in vivo. […] This mouse was injected i.p with 0.2 μg/kg IR783 at 0 hrs. […] The dye retention in formalin fixed tissues can be as long as several weeks (data not shown).

RCC = test: uptake of IR783 in cell lines: kidney; format: cell-based, human
Excerpt: as §1

VEC = test: uptake of IR783 in cell lines: vascular endothelia; format: cell-based, human
Excerpt: as §1

[4] = test system: human prostate cancer cells PC3 and ARCaPM in whole blood; test: NIR detection of cancer cells spiked into human blood with IR783 (FIG. 17); format: cell-based
Description: IR783 can be used to detect and enrich disseminating cancer cells in the blood (FIG. 17). […] 5×10^3 human prostate cancer cells PC3 and ARCaPM were used to spike a 0.5 ml heparinized whole blood from a healthy donor. After incubation at 37° C. for 30 minutes, a gradient centrifugation (Histopaque-1077, Sigma) was applied to remove red blood cells. The remaining cells were washed 5 times in PBS, cells in 50 μl of the 250 μl total volume were smeared on a glass slide for NIR fluorescence detection. […] This method can detect as few as 10 human prostate cancer cells/ml of human blood, a concentration close to that of the estimated numbers of CTC as reported by previous investigators.

BMC = test: uptake of IR783 in cell lines: bone marrow stroma; format: cell-based, human
Excerpt: as §1

[5] = Description: Mice were injected with 20 μg/Kg of IR783 and IR780 (which was 100× of the imaging dose which was 0.2 μg/Kg) and results were compared for a 28 day period. […] Zero grams means the mouse died. ICG is a FDA approved dye used for several diagnostic purposes. ICG is considered to be nontoxic. ICG is used here as a measure of the toxicity of the tested compounds.
Toxicity test of dye based on body weight gained during the treatment period from 0 to 14 days.

RT-4, T24, 253J, TCC = test: uptake of IR783 in cell lines: bladder; format: cell-based, human
Excerpt: as §1

[6] = test system: ARCaPM, LNCaP, ARCaPE, C4-2, PC-3; test: uptake of IR783 in cell lines: prostate; format: cell-based, human
Excerpt: as §1

H358 = test: uptake of IR783 in cell lines: lung; format: cell-based, human
Excerpt: as §1

ARCaPM and PC3 tumors = test: IR783 imaging of pre-established tumors in live mice, 5 nmol tail vein (FIG. 18); format: in vivo, mouse
Excerpt: Intratibial ARCaPM tumors were also established in live mice prior to administration of IR783. 5 nmol of IR783 was given through the tail vein and imaged using a Kodak multimodal imaging system.
Subcutaneous ARCaPM and PC3 (four tumors with different sizes) tumors were established in live mice prior to the administration of IR-783. 5 nmol of IR783 were given to mice through tail vein and imaged using Kodak multimodal-imaging system.

Q: Which Uptake (SN12C, ACHN) does the source give for `CC1(C)C(=CC=C2CCCC(C=CC3=[N+](CCCCS(=O)(=O)[O-])c4ccccc4C3(C)C)=C2Cl)N(CCCCS(=O)(=O)[O-])c2ccccc21.[Na+]` [IR783] here?
A: The Uptake was “Strong”.

Q: And the Uptake (P69)?
A: The Uptake was “Very low”.

Q: And the “cell death in culture” value (C4-2; 10 uM)?
A: The value was “did not induce cell death”.

Q: What about the “cell death in culture” value (C4-2; 100 uM) of the same compound?
A: The value was “induced a significant cell death”.

Q: What about the apoptosis (C4-2; 100 μM, exposure 24 hrs) of the same compound?
A: Its apoptosis is “clearly induced apoptosis”.

Q: What about the Uptake (RAW) of the same compound?
A: Its Uptake is “Very low”.

Q: And the “effect on pre-established tumors” value (C4-2 tumors)?
A: Its value is “induced marked cell death, with tumors almost eliminated at Day 5”.

Q: And the Uptake (HEK293)?
A: The Uptake was “Low”.

Q: And the non-specific imaging ([1]; 0.2 μg/kg i.p)?
A: The non-specific imaging was “non-specific imaging can be seen in the first 24 hrs, predominantly in the liver”.

Q: And the retention in tumors ([1]; 0.2 μg/kg i.p, 3.4 cm^3 orthotopic ARCaPM tumor)?
A: The retention in tumors was “more than 4 days”.

Q: What about the initial distribution ([1]; 0.2 μg/kg i.v or i.p) of the same compound?
A: The initial distribution was “initially accumulated in liver, lung and spleen”.

Q: What about the “time at which dye appeared in tumor” value ([1]; 0.2 μg/kg i.v or i.p) of the same compound?
A: Its value is 24 h.

Q: And the “time after which tumors and metastases can be readily identified” value ([1]; ARCaP orthotopic tumors, FIG. 19)?
A: Its value is 24 to 48 h.

Q: And the “signal in mice without tumors” value ([1]; data not shown)?
A: The value was “background activity”.

Q: And the “accumulation in gall bladder or urinary bladder” value ([1]; mouse, in vivo)?
A: Its value is “not detected”.

Q: What about the “time of accumulation in tumor and metastases” value ([1]; orthotopic xenograft ARCaPm tumor, FIG. 16 legend) of the same compound?
A: Its value is 24 to 96 h.

Q: What about the “dye in normal organs removed from hosts” value ([2]; fluorescence imaging of all organs, data not shown) of the same compound?
A: The value was “lack of uptake of the dye in normal organs”.

Q: And the “dye in metabolically active C4-2 tumors in mouse tibia” value ([2]; mouse, in vivo)?
A: The value was “retained the dye”.

Q: And the “dye retention in necrotic tumors on the contralateral side” value ([2]; mouse, in vivo)?
A: The value was “did not”.

Q: And the “smallest tumor size detected” value ([2]; orthotopic or bone metastatic lesions, data not shown)?
A: The value was roughly 2 mm^3.

Q: And the “uptake by xenografts and metastatic bone lesions” value ([2]; subcutaneous and intra-tibial sites of nude mice, 0.2 μg/kg i.p, 24 hours)?
A: The value was “preferentially taken up”.

Q: What about the “imaging of spontaneous prostate tumor” value ([3]; 24 hours after administration) of the same compound?
A: The value was “could be imaged”.

Q: And the “dye retention in formalin fixed tissues” value ([3]; data not shown)?
A: The value was “several weeks”.

Q: What about the “tolerance of dye accumulation in tumors to fixation” value ([3]; mouse, in vivo) of the same compound?
A: Its value is “can tolerate fixation with both paraformaldehyde and glutaraldehyde”.

Q: What about the Uptake (RCC) of the same compound?
A: Its Uptake is “Strong”.

Q: What about the Uptake (VEC) of the same compound?
A: The Uptake was “Very low”.

Q: And the “lowest number of cancer cells detected” value [4]?
A: Its value is 10 human prostate cancer cells/ml of human blood.

Q: What about the “fluorescence of normal periphery mononucleated cells” value ([4]; 37° C., 30 minutes) of the same compound?
A: Its value is “very low to background NIR fluorescence”.

Q: What about the “fluorescence of cancer cells” value ([4]; 37° C., 30 minutes, whole blood of a healthy donor) of the same compound?
A: The value was “strong fluorescence signals in the cytoplasm”.

Q: And the Uptake (BMC)?
A: Its Uptake is “Very low”.

Q: What about the toxicity ([5]; 20 μg/Kg (100× of the imaging dose), 28 day period) of the same compound?
A: Its toxicity is “not toxic”.

Q: And the body weight ([5]; dose 1X (imaging dose 0.2 μg/Kg), 0 day)?
A: The body weight was 20.29 g.

Q: What about the body weight ([5]; dose 1X, 1 day) of the same compound?
A: The body weight was 20.20 g.

Q: What about the body weight ([5]; dose 1X, 2 day) of the same compound?
A: The body weight was 20.23 g.

Q: And the body weight ([5]; dose 1X, 3 day)?
A: The body weight was 20.32 g.

Q: And the body weight ([5]; dose 1X, 4 day)?
A: The body weight was 20.34 g.

Q: And the body weight ([5]; dose 1X, 5 day)?
A: The body weight was 21.00 g.

Q: What about the body weight ([5]; dose 1X, 6 day) of the same compound?
A: The body weight was 21.87 g.

Q: What about the body weight ([5]; dose 1X, 7 day) of the same compound?
A: Its body weight is 22.32 g.

Q: What about the body weight ([5]; dose 1X, 14 day) of the same compound?
A: Its body weight is 23.91 g.

Q: And the body weight ([5]; dose 1X, 28 day)?
A: Its body weight is 24.86 g.

Q: What about the body weight ([5]; dose 10X, 0 day) of the same compound?
A: The body weight was 20.57 g.

Q: What about the body weight ([5]; dose 10X, 1 day) of the same compound?
A: Its body weight is 20.61 g.

Q: What about the body weight ([5]; dose 10X, 2 day) of the same compound?
A: The body weight was 20.59 g.

Q: What about the body weight ([5]; dose 10X, 3 day) of the same compound?
A: Its body weight is 20.98 g.

Q: What about the body weight ([5]; dose 10X, 4 day) of the same compound?
A: Its body weight is 21.02 g.

Q: What about the body weight ([5]; dose 10X, 5 day) of the same compound?
A: Its body weight is 21.34 g.

Q: What about the body weight ([5]; dose 10X, 6 day) of the same compound?
A: Its body weight is 21.76 g.

Q: What about the body weight ([5]; dose 10X, 7 day) of the same compound?
A: Its body weight is 22.54 g.

Q: What about the body weight ([5]; dose 10X, 14 day) of the same compound?
A: Its body weight is 24.01 g.

Q: And the body weight ([5]; dose 10X, 28 day)?
A: Its body weight is 24.87 g.

Q: And the body weight ([5]; dose 100X (20 μg/Kg), 0 day)?
A: Its body weight is 19.85 g.

Q: What about the body weight ([5]; dose 100X, 1 day, zero grams means the mouse died) of the same compound?
A: Its body weight is 19.74 g.

Q: What about the body weight ([5]; dose 100X, 2 day, zero grams means the mouse died) of the same compound?
A: Its body weight is 20.01 g.

Q: What about the body weight ([5]; dose 100X, 3 day, zero grams means the mouse died) of the same compound?
A: Its body weight is 20.39 g.

Q: And the body weight ([5]; dose 100X, 4 day, zero grams means the mouse died)?
A: The body weight was 20.43 g.

Q: What about the body weight ([5]; dose 100X, 5 day, zero grams means the mouse died) of the same compound?
A: The body weight was 21.01 g.

Q: What about the body weight ([5]; dose 100X, 6 day, zero grams means the mouse died) of the same compound?
A: Its body weight is 21.23 g.

Q: And the body weight ([5]; dose 100X, 7 day, zero grams means the mouse died)?
A: Its body weight is 22.00 g.

Q: And the body weight ([5]; dose 100X, 14 day, zero grams means the mouse died)?
A: The body weight was 23.76 g.

Q: What about the body weight ([5]; dose 100X, 28 day, zero grams means the mouse died) of the same compound?
A: The body weight was 24.61 g.

Q: And the Uptake (RT-4, T24, 253J, TCC)?
A: The Uptake was “Strong”.

Q: And the Uptake [6]?
A: The Uptake was “Strong”.

Q: What about the Uptake (H358) of the same compound?
A: The Uptake was “Strong”.

Q: And the tumor images (ARCaPM and PC3 tumors; intratibial ARCaPM tumors, data not shown)?
A: Its tumor images is “Clear tumor images were detected”.

Q: What about the tumor images (ARCaPM and PC3 tumors; subcutaneous ARCaPM and PC3 tumors) of the same compound?
A: Its tumor images is “clear tumor images can be detected”.
